Data from patent US20260263418A1, “AGENTS FOR ENHANCING DOPAMINE RELEASE, IMPROVING MOTOR CONTROL FUNCTION, IMPROVING MOTOR LEARNING FUNCTION AND IMPROVING ACTIVITY MOTIVATION” (MEIJI CO., LTD., priority 2023, published 2026).
“And” between values parts separate entries of the source, which are not always exact repeats. Equal entries are not always repeated. Peptide text beside a SMILES is read from it.

System: PC12 cells
Assay: Dopamine release from PC12 cells after dipeptide addition (LC-MS/MS of supernatant)
Assay type: cell-based
Conditions: 6 hours; for Change in dopamine concentration compared to the non-stimulated group / Dopamine concentration after stimulation, Mean ± Standard deviation / Percentage relative to non-stimulated group: 1 mM dipeptide; for Change in dopamine concentration compared to the non-stimulated group: Student's t-test, significance level 5%; for Dopamine concentration after stimulation, Mean ± Standard deviation: 3 wells; for Dopamine concentration after stimulation, Mean ± Standard deviation / Dopamine concentration after stimulation: 37° C., supernatant; for Percentage relative to non-stimulated group: dopamine concentration, non-stimulated group = 100; for Dopamine concentration after stimulation: individual wells, 1 mM dipeptide in medium
Protocol: PC12 cells were seeded in a 96-well plate at a cell count of 2×10^4 cells/well using DMEM containing 10% by volume of HS (Horse Serum), 10% by volume of FBS (Fetal Bovine Serum), 100 units/mL of penicillin and 100 μg/mL of streptomycin. The cells were cultured at 5% CO2 by volume and 37° C. The cells were cultured for 3 to 5 days to ensure that they were confluent, and then used for experiments.
The culture medium was removed from PC12 cells, which were washed twice with PBS (Phosphate Buffered Saline). The wells of the 96-well plate were divided into 5 groups: non-stimulated group (5 wells), WF administration group (3 wells), WH administration group (3 wells), WM administration group (3 wells) and WR administration group (3 wells). The WR administration group corresponds to Inventive Example, and the non-stimulated group, WF administration group, WH administration group and WM administration group correspond to Comparative Examples.
DMSO (Dimethyl Sulfoxide) was added to the same medium as the medium used to culture PC12 cells, thereby preparing a medium containing 1% by […] of DMSO. Dipeptide WF was added to the same medium as the medium used to culture PC12 cells, thereby preparing a medium containing 1 mM dipeptide WF. In the same way, a medium containing 1 mM dipeptide WH, a medium containing 1 mM dipeptide WM and a medium containing 1 mM dipeptide WR were prepared. The medium containing 1% by volume of DMSO (Dimethyl Sulfoxide) was added to the non-stimulated group, the medium containing 1 mM dipeptide WF was added to the WF administration group, the medium containing 1 mM dipeptide WH was added to the WH administration group, the medium containing 1 mM dipeptide WM was added to the WM administration group, and the medium containing 1 mM dipeptide WR was added to the WR administration group. These groups were incubated at 37° C. for 6 hours. After the incubation, supernatant of each well was collected.
Each supernatant was transferred onto ice. To each supernatant, 25 μL of 2M perchloric acid was added for protein removal, and after 10 minutes, 50 μL of 1M sodium acetate was added for neutralization. After 15 minutes, centrifugation was performed at 4° C. and 20000 G for 20 minutes. 100 μL of each supernatant was collected, and after added with 10 μL of 2 mM 3,4-dihydroxybenzylamine (DHBA) as an internal standard, it was passed through a chromatodisk to obtain a sample. The obtained sample was used for liquid chromatography-tandem mass spectrometry (LC-MS/MS).
LC-MS/MS was performed using a Triple TOF 6600+ system manufactured by SCIEX under the following measurement conditions. A calibration curve was prepared using pure products, and after correcting the peak area of dopamine with the peak area of the internal standard (DHBA), the dopamine concentration (nM) in each sample was calculated from the calibration curve. • Equipment: Triple TOF 6600+ System (SCIEX, Massachusetts, USA) • Column: Inertsil (registered trademark) ODS-4 (GL Sciences, Tokyo, Japan) • Eluent A: 0.1% aqueous solution of formic acid • Eluent B: 0.1% methanol solution of formic acid • Gradient conditions: As listed in Table 1
Data are presented as mean±standard deviation. For statistical processing, Student's t-test was used for comparisons between the non-stimulated group and each administration group. The significance level was set at 5%.

How did the “Change in dopamine concentration compared to the non-stimulated group” value turn out when N[C@@H](Cc1c[nH]c2ccccc12)C(=O)N[C@@H](Cc1ccccc1)C(=O)O [WF, tryptophanylphenylalanine] (H-Trp-Phe-OH) was run?
The value was “did not exhibit such a significant increase in dopamine concentration”.

What about the “Dopamine concentration after stimulation, Mean ± Standard deviation” value of the same molecule?
Its value is 19.56 ± 1.35 nM.

And the “Percentage relative to non-stimulated group” value?
Its value is 83.23%.

What about the “Dopamine concentration after stimulation” value of the same molecule?
The value was 18.97 nM and 18.60 nM and 21.10 nM.

Which results are given for N=C(N)NCCC[C@H](NC(=O)[C@@H](N)Cc1c[nH]c2ccccc12)C(=O)O [WR, tryptophanylarginine] (H-Trp-Arg-OH)?
Change in dopamine concentration compared to the non-stimulated group: significant increase in dopamine concentration; Dopamine concentration after stimulation, Mean ± Standard deviation: 36.24 ± 2.10 nM; Percentage relative to non-stimulated group: 154.23%; Dopamine concentration after stimulation: 38.47 nM and 34.30 nM and 35.95 nM

What does the source list for CSCC[C@H](NC(=O)[C@@H](N)Cc1c[nH]c2ccccc12)C(=O)O [WM, tryptophanylmethionine] (H-Trp-Met-OH)?
Change in dopamine concentration compared to the non-stimulated group: did not exhibit such a significant increase in dopamine concentration; Dopamine concentration after stimulation, Mean ± Standard deviation: 24.57 ± 7.88 nM; Percentage relative to non-stimulated group: 104.55%; Dopamine concentration after stimulation: 20.58 nM and 19.48 nM and 33.64 nM

For N[C@@H](Cc1c[nH]c2ccccc12)C(=O)N[C@@H](Cc1c[nH]cn1)C(=O)O [WH, tryptophanylhistidine] (H-Trp-His-OH), which “Change in dopamine concentration compared to the non-stimulated group” value is on record?
Its value is “did not exhibit such a significant increase in dopamine concentration”.

What about the “Dopamine concentration after stimulation, Mean ± Standard deviation” value of the same molecule?
The value was 22.15 ± 4.13 nM.

What about the “Percentage relative to non-stimulated group” value of the same molecule?
The value was 94.26%.

What about the “Dopamine concentration after stimulation” value of the same molecule?
The value was 26.89 nM and 19.36 nM and 20.20 nM.
